From patent publication US11413278B2, “Compounds and methods for promoting stress resistance” (priority 2015, dated 2022)
Entries after “also recorded” stand apart in the source; their conditions may differ. Read-outs that look alike come from different tables or passages of the source.

Columns and labels:
[1] = tested on: WI-38 cells; test: Propidium iodide (PI) cell-death imaging upon H2O2 stress; format: cell-based, human; conditions: for Assay 7: H2O2-resistant, at 10 uM, validated by propidium iodide (PI) cell-death imaging: w/H2O2, 3 hrs/4 hrs/5 hrs, YES/NO; for cytotoxicity at 10 µM: Homo sapiens, WI-38
[2] = tested on: WI-38 cells; test: CdCl2 (cadmium) resistance assay; format: cell-based, human; conditions: for fold induction at 10 µM: Homo sapiens, 12 h, normalized ATP measurement; for Assay 4: H2O2- & Cd-resistant / Assay 2: Cadmium-resistant: YES/NO; for Assay 2: Cadmium-resistant: * indicates partial
In short: (§1)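 WI-38 cells were given compounds at five final concentrations (0.25–20 μM) in triplicate, followed by cadmium or MMS for 12 h. For MMS, medium was switched from OptiMEM+10% FBS to serum-free DMEM+2% BSA when compounds were added, 24 h before stressor. Two independent assays were run, analysed by global variance t-test.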

[3] = tested on: WI-38 cells; test: MMS resistance assay; format: cell-based, human; conditions: for fold induction at 10 µM: Homo sapiens, 12 h, normalized ATP measurement; for Assay 3: MMS-resistant / Assay 5: Triple resistant: YES/NO; for Assay 3: MMS-resistant: * indicates partial; for Assay 5: Triple resistant: H2O2, cadmium and MMS
In short: as §1

[4] = tested on: human dermal fibroblast (HDF) primary cells; test: H2O2-resistance in primary human dermal fibroblasts; format: cell-based; conditions: for fold induction at 10 µM: Homo sapiens; for Assay 6: H2O2-resistant, at 10 uM, human dermal fibroblast (HDF) primary cells: YES/NO
[5] = tested on: C. elegans; format: in vivo, Caenorhabditis elegans; conditions: in vivo
Procedure: The worms were treated with the small molecules in liquid, with H2O2 (500 μM final concentration) added on day 4 of adulthood, and scored for viability everyday
FUdR was used to block progeny production. The molecules were analyzed in 96-well plates, with 4 wells for each small molecule. Multiple control wells with DMSO (0.2% final concentration) were included. […] Day 1 adults were transferred onto mini-plates, seeded with OP50 bacteria (UV-irradiated, kanamycin-treated) and supplemented with small molecules (˜60 μM final concentration, 0.2% DMSO). Worms were scored every other day. Cumulative survival was analyzed using the STATA software (log-rank test). […] The worms were treated with the small molecules in liquid, with H2O2 (500 μM final concentration) added on day 4 of adulthood, and scored for viability every day.

[6] = tested on: WI-38 cells; test: Long-term effects on cell viability (5 days, ATP; morphology, PI imaging); format: cell-based; conditions: 10 μM; for Luminescence signal for ATP measurement, day-1 Average / Luminescence signal for ATP measurement, day-2 Average / Luminescence signal for ATP measurement, day-3 Average / Luminescence signal for ATP measurement, day-4 Average / Luminescence signal for ATP measurement, day-5 Average / viability at 10 µM: Batch 1; for Luminescence signal for ATP measurement, day-1 Average / Luminescence signal for ATP measurement, day-2 Average / Luminescence signal for ATP measurement, day-3 Average / Luminescence signal for ATP measurement, day-4 Average / Luminescence signal for ATP measurement, day-5 Average: n = 6, day-0 luminescence = 320956 ± 24708; for viability at 10 µM: Homo sapiens, WI-38, 120 h, DMSO ctrl = 100.0%, read-out: ATP luminescence by day-5 normalized; for Luminescence signal for ATP measurement, day-5 Average / viability at 10 µM: day-5; for O = Potential toxicity / Q = Potential toxicity: human, 5 days;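 on Luminescence signal for ATP measurement, day-2 Average: compounds at 10 µM with ATP read daily over 5 days of treatment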;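 on Luminescence signal for ATP measurement, day-3 Average: compounds at 10 µM with ATP read daily over 5 days of treatment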;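 on Luminescence signal for ATP measurement, day-4 Average: compounds at 10 µM with ATP read daily over 5 days of treatment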;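 on Luminescence signal for ATP measurement, day-5 Average: compounds at 10 µM with ATP read daily over 5 days of treatment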
Procedure: In addition, cell death was scored by PI-imaging on day 2 and day 5 of treatment.
Applicants introduced molecules (at 10 uM final concentration) to WI-38 fibroblasts and then assayed cell viability (through ATP measurement) everyday, during a course of 5 days of continuous treatment. […] Applicants also examined the morphology and scored cell death (propidium iodide staining) for cells treated with the above molecules. Of these 14 molecules, some appeared to cause cell toxicity. […] Despite the observed long-term toxicity, these molecules are still interesting as they may act as anti-tumor agents in vivo, should they have more pronounced cytotoxicity on highly proliferative tumor cells. When cells were incubated with these molecules for ˜24 hrs and then subject to hydrogen peroxide for 3 hrs, these molecules are all protective. […] Some of these small molecules may be toxic by themselves under certain conditions, but by inducing protective mechanisms, they may trigger “hormesis” and therefore protect cells from oxidative stress.

[7] = Summary score for characterization of 38 core set hits; conditions: for D = Triple resistant: 2-point score, multiplex resistance (cadmium, MMS, H2O2); for S = Sum of Negative scores: human; for C = H2O2- & Cd-resistant: score, resistance to both H2O2 and cadmium
Procedure: 38 “core set” small molecules are listed and are assigned a score, based on the result for each individual characterization. From our small molecule screen for H2O2-resistance, we isolated 61 top hits. […] Specifically, a 2-point score was assigned to the most well-known and prominent longevity-related phenotypes, such as multiplex resistance, activation of FOXO3 and/or NRF2, and down-regulation of mTOR. Small molecules were also analyzed for their ability to extend C. elegans' lifespan in 4 to 6 independent trials, and the lifespan score scale is from 0 to 2: 0 for no obvious effects, 1 for lifespan extension observed in 2 trials, 2 for observed in more than 2 trials. Certain molecules appeared to have DNA-damaging effects and/or potential cell-toxicity in cultured human cells, and they receive a negative point.

[8] = H2O2 3 hrs, 10 uM, n = 6, negative control 5.44% ± 0.79%, read-out: Percentage of propidium iodide-positive dead cells (under H2O2 stress treatment), 3 hrs
[9] = H2O2 4 hrs, 10 uM, n = 6, negative control 16.81% ± 1.42%, read-out: Percentage of propidium iodide-positive dead cells (under H2O2 stress treatment), 4 hrs
[10] = pre-treatment at 10 uM, 3.5 hours of H2O2, DMSO control 27.4% ± 6.5%, */**/*** = reduced by one/two/three standard deviations, read-out: Percentage of propidium iodide-positive dead cells (under H2O2 stress treatment), at 10 uM
[11] = Exp. 1, WI-38 cells, read-out: Exp. 1, under Cd2Cl2 stress treatment, at 10 uM (fold change)
[12] = Exp. 2, WI-38 cells, read-out: Exp. 2, under Cd2Cl2 stress treatment, at 10 uM (fold change)
[13] = WI-38 cells, 10 μM, both stressors
[14] = score in summary of 38 core set hits
[15] = Exp. 1, WI-38 cells, read-out: Exp. 1, under MMS stress treatment, at 10 uM (fold change)
[16] = Exp. 2, WI-38 cells, read-out: Exp. 2, under MMS stress treatment, at 10 uM (fold change)
[17] = Experiment 1, HDF cells, read-out: Experiment 1, HDF cells (under H2O2 stress treatment), at 10 uM (fold change)
[18] = Experiment 2, HDF cells, read-out: Experiment 2, HDF cells (under H2O2 stress treatment), at 10 uM (fold change)
[19] = H2O2 5 hrs, 10 uM, n = 6, negative control 22.50% ± 1.53%, read-out: Percentage of propidium iodide-positive dead cells (under H2O2 stress treatment), 5 hrs

| Structure (SMILES) | Assay 7: H2O2-resistant, at 10 uM, validated by propidium iodide (PI) cell-death imaging ([1]; 10 uM) | cytotoxicity at 10 µM [1, 8] [%] | cytotoxicity at 10 µM [1, 10] [%] | fold induction at 10 µM [2, 11] | fold induction at 10 µM [2, 12] | Assay 4: H2O2- & Cd-resistant [2] | Assay 2: Cadmium-resistant [2] | A = Cadmium resistant [2, 14] | A = Cadmium resistant ([2]; summary score) | C = H2O2- & Cd-resistant ([2]; summary score) | fold induction at 10 µM [3, 15] | fold induction at 10 µM [3, 16] | B = MMS resistant [3, 14] | B = MMS resistant ([3]; summary score) | D = Triple resistant ([3]; summary score) | fold induction at 10 µM [4, 17] | fold induction at 10 µM [4, 18] | Assay 6: H2O2-resistant, at 10 uM, human dermal fibroblast (HDF) primary cells [4] | L = H2O2-resistance in worms [5] | N = H2O2-resistance in woms [5] | further results |
| --- | --- | --- | --- | --- | --- | --- | --- | --- | --- | --- | --- | --- | --- | --- | --- | --- | --- | --- | --- | --- | --- |
| O=C(Nc1cccc(Cl)c1)c1ccc([N+](=O)[O-])o1 [Gr-1D] | YES | 6.27 | 36.7 | 3.14 | 3.84 | YES | YES | 1 | 1 | 1 | 1.16 | 2.31 | 0 | 1 | 2 | 2.79 | 49.3 | YES | 0 | 0 | cytotoxicity at 10 µM [1, 9]: 5.83%; CdCl2-resistant [2]: YES; H2O2- & CdCl2-resistant [2]: YES; CdCl2-resistant ([2]; WI-38 cells, 10 μM): YES; H2O2- & CdCl2-resistant [2, 13]: YES; Assay 3: MMS-resistant [3]: YES; Assay 5: Triple resistant [3]: YES; Luminescence signal for ATP measurement, day-1 Average [6]: 396843; Luminescence signal for ATP measurement, day-2 Average [6]: 497248; Luminescence signal for ATP measurement, day-3 Average [6]: 542643; Luminescence signal for ATP measurement, day-4 Average [6]: 797305; Luminescence signal for ATP measurement, day-5 Average [6]: 865168; viability at 10 µM [6]: 84.3%; O = Potential toxicity [6]: 1; Q = Potential toxicity [6]: 0; D = Triple resistant [7]: 0; S = Sum of Negative scores [7]: 1; C = H2O2- & Cd-resistant [7]: 1 |
| Oc1ncnc2sc3c(c12)CCC3 [O14] | YES | 3.8 | 12.7 | 2.2 | 2.69 | YES | YES | 1 | 1 | 1 | 0.84 | 3.45 | 0 | 1 | 2 | 2.87 | 4.73 | YES | 0 | 0 | CdCl2-resistant [2]: YES; H2O2- & CdCl2-resistant [2]: YES; CdCl2-resistant ([2]; WI-38 cells, 10 μM): YES; H2O2- & CdCl2-resistant [2, 13]: YES; Assay 3: MMS-resistant [3]: YES; Assay 5: Triple resistant [3]: YES; Luminescence signal for ATP measurement, day-1 Average [6]: 581665; Luminescence signal for ATP measurement, day-2 Average [6]: 685103; Luminescence signal for ATP measurement, day-3 Average [6]: 819423; Luminescence signal for ATP measurement, day-4 Average [6]: 1074238; Luminescence signal for ATP measurement, day-5 Average [6]: 1052551; viability at 10 µM [6]: 102%; O = Potential toxicity [6]: 0; Q = Potential toxicity [6]: 0; D = Triple resistant [7]: 0; S = Sum of Negative scores [7]: 0; C = H2O2- & Cd-resistant [7]: 1 |
| Cc1ccc(NC(=O)c2ccc([N+](=O)[O-])o2)cc1C [Gr-1F] | YES | 3.55 | 11.2 | 6.65 | 4.8 | YES | YES | 1 | 1 | 1 | 0.74 | 2.07 | 0 | 1 | 2 | 5.84 | 52.3 | YES | 0 | 0 | cytotoxicity at 10 µM [1, 9]: 3.07%; cytotoxicity at 10 µM [1, 19]: 4.57%; CdCl2-resistant [2]: YES; H2O2- & CdCl2-resistant [2]: YES; CdCl2-resistant ([2]; WI-38 cells, 10 μM): YES; H2O2- & CdCl2-resistant [2, 13]: YES; Assay 3: MMS-resistant [3]: YES; Assay 5: Triple resistant [3]: YES; Luminescence signal for ATP measurement, day-1 Average [6]: 383221; Luminescence signal for ATP measurement, day-2 Average [6]: 440655; Luminescence signal for ATP measurement, day-3 Average [6]: 446240; Luminescence signal for ATP measurement, day-4 Average [6]: 534298; Luminescence signal for ATP measurement, day-5 Average [6]: 600633; viability at 10 µM [6]: 58.5%; O = Potential toxicity [6]: 1; Q = Potential toxicity [6]: 1; D = Triple resistant [7]: 0; S = Sum of Negative scores [7]: 2; C = H2O2- & Cd-resistant [7]: 1 |
| CCCN1C/C(=C\c2ccc(F)cc2)C(=O)/C(=C/c2ccc(F)cc2)C1 [O15] | YES | 4.04 | 6.8 | 0.18 | 0.57 | YES | YES | 0 | 1 | 1 | 0.16 | 0.38 | 0 | 0 | 0 | 0.57 | 1.77 | YES | 1 | 1 | cytotoxicity at 10 µM [1, 9]: 4.4%; cytotoxicity at 10 µM [1, 19]: 6.06%; H2O2-resistance assay, 1st experiment [5]: YES;; H2O2-resistance assay, 2nd experiment [5]: YES.; Protection of C. elegans from hydrogen peroxide [5]: protected worms from hydrogen peroxide; also recorded: protected C. elegans from hydrogen peroxide; also recorded: could protect C. elegans from hydrogen peroxide; Luminescence signal for ATP measurement, day-1 Average [6]: 426828; Luminescence signal for ATP measurement, day-2 Average [6]: 601153; Luminescence signal for ATP measurement, day-3 Average [6]: 634740; Luminescence signal for ATP measurement, day-4 Average [6]: 904970; Luminescence signal for ATP measurement, day-5 Average [6]: 761533; viability at 10 µM [6]: 74.2%; O = Potential toxicity [6]: 1; Q = Potential toxicity [6]: 0; D = Triple resistant [7]: 0; S = Sum of Negative scores [7]: 0; C = H2O2- & Cd-resistant [7]: 0 |
